Results: ChEMBL document CHEMBL1128812, “Synthesis and porcine pancreatic elastase inhibitory evaluation of 6-(sulfonyl)oxy-and 6-chloropenicillanate sulfone esters and 3-(acyloxy)methyl-6-chloropenam sulfones” (Bioorg Med Chem Lett, 1995)
Where “and” joins values, the source holds several entries; their conditions need not be identical. Equal entries are not always repeated.

Target: T1, Chymotrypsin-like elastase family member 2A (Sus scrofa) (UniProt P08419)
T1 sequence (whole entry): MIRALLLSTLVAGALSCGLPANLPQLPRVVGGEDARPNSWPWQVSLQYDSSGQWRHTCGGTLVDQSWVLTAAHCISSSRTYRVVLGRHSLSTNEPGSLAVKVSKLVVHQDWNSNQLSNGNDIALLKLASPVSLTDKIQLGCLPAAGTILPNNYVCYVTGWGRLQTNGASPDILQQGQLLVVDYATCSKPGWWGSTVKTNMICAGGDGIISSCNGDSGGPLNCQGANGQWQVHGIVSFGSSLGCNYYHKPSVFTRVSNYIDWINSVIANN
Assay: Compound was tested in vitro for its ability to inhibit Pancreatic elastase catalyzed hydrolysis of substrate with 10 min pre-incubation

COC(=O)[C@@H]1N2C(=O)[C@@H](Cl)[C@H]2S(=O)(=O)C1(C)C
inhibition: 44% and 40%
